Key:
BT-549 = assay: Cytotoxicity against human BT549 cells assessed as reduction in cell viability after 24 hrs by MTT assay; assay type: functional, cell-based; details: BT-549, 24 h
HeLa = assay: Cytotoxicity against human HeLa cells assessed as reduction in cell viability after 24 hrs by MTT assay; assay type: functional, cell-based
Vero = assay: Cytotoxicity against African green monkey Vero cells assessed as reduction in cell viability after 24 hrs by MTT assay; assay type: cell-based; details: Chlorocebus sabaeus
[1] = Inhibition of glutathione S-transferase (unknown origin); parameters: species or system Homo sapiens
Lu1 = assay: Cytotoxicity against human Lu1 cells by SRB assay; assay type: functional, cell-based
KB = assay: Cytotoxicity against human KB cells by SRB assay; assay type: functional, cell-based
SK-MEL-2 = assay: Cytotoxicity against human SK-MEL-2 cells by SRB assay; assay type: functional, cell-based

| IC50 [1] | Structure (SMILES) | IC50 (BT-549) | IC50 (HeLa) | IC50 (Vero) | IC50 (Lu1) | IC50 (KB) | IC50 (SK-MEL-2) |
| --- | --- | --- | --- | --- | --- | --- | --- |
|  | COc1ccc2c(c1)OCC(Cc1ccc(OC)c(O)c1)C2=O (stereo not given) | 30.6 µM | 50.1 µM | > 200 µM |  |  |  |
|  | O=C1c2ccccc2OCC1Cc1ccc(O)cc1 (stereo not given) | 20.1 µM | 42.8 µM | > 200 µM |  |  |  |
|  | O=C1c2ccccc2OCC1Cc1ccc(Cl)cc1 (stereo not given) | 69.3 µM | 61.9 µM | > 200 µM |  |  |  |
|  | Cc1ccc(CC2COc3ccccc3C2=O)cc1 (stereo not given) | 42.2 µM | 48.9 µM | > 200 µM |  |  |  |
|  | Cc1ccc2c(c1)OCC(Cc1ccc(O)cc1)C2=O (stereo not given) | 28.7 µM | 43 µM | > 200 µM |  |  |  |
|  | COc1ccc(CC2COc3ccc(C)cc3C2=O)cc1 (stereo not given) | > 100 µM | 76.3 µM | > 200 µM |  |  |  |
| 17.1 µM | COc1ccc2c(c1)C(=O)[C@@H](Cc1cc(O)cc(O)c1O)CO2 |  |  |  |  |  |  |
|  | COc1ccc(CC2COc3ccccc3C2=O)c(OC)c1 (stereo not given) | 61.9 µM | 38.3 µM | > 200 µM |  |  |  |
|  | COc1ccc(CC2COc3ccccc3C2=O)cc1OC (stereo not given) | > 100 µM | > 100 µM | > 200 µM |  |  |  |
|  | COc1ccc(CC2COc3cc(C)ccc3C2=O)cc1 (stereo not given) | 42.1 µM | 68.3 µM | > 200 µM |  |  |  |
|  | COc1ccc(C[C@@H]2COc3cc(OC)c(C)c(O)c3C2=O)c(O)c1 |  |  |  | 0.51 to 0.66 µM | 0.51 to 0.66 µM | 0.51 to 0.66 µM |
|  | COc1ccc(CC2COc3ccccc3C2=O)c(OC)c1OC (stereo not given) | > 100 µM | > 100 µM | > 200 µM |  |  |  |
|  | O=C1c2ccccc2OCC1Cc1ccc(F)cc1 (stereo not given) | > 200 µM | > 200 µM | > 200 µM |  |  |  |
| 16.5 µM | O=C1c2cc(O)ccc2OC[C@@H]1Cc1cc(O)cc(O)c1O |  |  |  |  |  |  |
|  | COc1ccc(CC2COc3ccccc3C2=O)cc1 (stereo not given) | > 100 µM | > 100 µM | > 200 µM |  |  |  |
|  | COc1ccc(CC2COc3ccccc3C2=O)cc1O (stereo not given) | > 100 µM | 20.4 µM | > 200 µM |  |  |  |
|  | COc1ccc(CC2COc3cccc(OC)c3C2=O)cc1O (stereo not given) | > 200 µM | > 200 µM | > 200 µM |  |  |  |
|  | COc1ccc2c(c1)OCC(Cc1ccc(O)cc1)C2=O (stereo not given) | 24.3 µM | 50.4 µM | > 200 µM |  |  |  |

From ChEMBL document CHEMBL4177629, “Synthesis, anticancer, structural, and computational docking studies of 3-benzylchroman-4-one derivatives” (Bioorg Med Chem Lett, 2017)
